Laboratory results as given in patent publication US6410054B1, “Immediate release eplerenone compositions” (G. D. Searle & Co., priority 1998, dated 2002).

Columns and labels:
ADME study: safety = format: in vivo, humans; settings: single 100 mg oral solution
Experimental: The study employed eight healthy male humans. Each subject received a single 100 mg oral dose of a solution of [^14C]eplerenone (specific activity 0.75 μCi/mg). Plasma, saliva, breath, urine and fecal samples were collected at predetermined intervals and analyzed for sample radioactivity and the concentration of eplerenone and its open lactone ring form. Safety was determined on the basis of laboratory tests, vital signs, and the occurrence and types of adverse events.
Blood samples were collected at −0.5 (predose), 0.5, 1, 1.5, 2, 2.5, 3, 4, 6, 8, 12, 16, 24, 36, 48, 72 and 96 hours post dose. […] Individual fecal samples were collected beginning immediately after dosing and continuing through 0800 hours on day 8. In addition, one predose fecal sample was provided. Saliva samples were taken at 0.5 hour predose and at 0.5, 1, 2, 4, 6, 12, and 24 hours postdose. Breath samples were taken at 0.5 hour predose and at 1, 2, 3, 4, 6, 8, 12, 24, 36, 48 and 72 hours postdose.

[1] = Effect of food study: safety and tolerability; format: in vivo, humans; settings: single 100 mg dose, fasted or fed
Experimental: An open-label randomized, cross-over study was employed to evaluate the pharmacokinetic profiles of eplerenone under fasted and fed conditions, and the safety and tolerability of eplerenone. Safety was assessed based on adverse events, vital signs and clinical laboratory tests. Twelve healthy male subjects were randomized to receive a single 100 mg dose of eplerenone on days 1 and 8 under (i) fasted conditions, or (ii) immediately following a high-fat breakfast. The subjects were orally administered (dosed) a single 100 mg dose of eplerenone in the form of the capsule described in Example 7, together with approximately 200 to 240 mL of water at 0800 hours on days 1 and 8. Subjects randomized to receive a high-fat breakfast were to completely ingest the meal within 20 minutes prior to dosing. The high-fat meal contained approximately 33 g protein, 75 g fat, 58 g carbohydrates and 1000 calories. […] All adverse events were mild in severity.

blood pressure = test: Treatment of hypertension study: blood pressure; format: in vivo, humans; settings: for 24 hour mean ΔDBP / 24 hour mean ΔSBP / Primary Efficacy Variable: ΔDBP at trough (sitting) / ΔSBP at trough (sitting): eight weeks
Experimental: The safety and efficacy of a range of doses of eplerenone in the treatment of hypertension relative to placebo were evaluated in a multi-center, randomized, double-blind, placebo-lead-in, parallel group study. […] The primary efficacy variable was the change in cuff diastolic blood pressure (ADBP; sitting) measured at trough plasma levels after eight weeks of double blind treatment. The secondary variables measured were the change in trough cuff systolic blood pressure (ΔSBP; sitting), change in 24 hour mean diastolic blood pressure (ΔDBP), and change in 24 hour mean systolic blood pressure (ΔSBP). The primary and secondary efficacy variables were analyzed to compare BID versus QD dosing regimens for each eplerenone dose group, and both eplerenone and spironolactone versus placebo. Changes in plasma renin and serum aldosterone after eight weeks of dosing were also analyzed as secondary measures of efficacy.
The specific pharmaceutical compositions of each eplerenone capsule are reported in Examples 5, 6, 7 and 8. The placebo was a conventional capsule containing lactose.

[2] = design: species or system beagle dogs; settings: female, beagle, dog, in vivo
Experimental: The effect of the particle size of the eplerenone starting material used in the pharmaceutical composition on eplerenone plasma concentrations and relative bioavailability was studied in a dog model. Four healthy female beagle dogs weighing between 8 to 12 kg were intragastrically administered one immediate release (IR) capsule containing the formulation described in Table 30A below followed by about 10 mL of water.
The dogs were fasted for 15 to 20 hours prior to administration of the capsule and were not fed again until at least 4 hours after dose administration. Blood samples (approximately 3 mL) were collected by venipuncture in chilled tubes containing heparin at 0, 0.5, 1, 2, 3, 4, 6, 8 and 24 hours after dose administration. The blood samples were immediately placed on ice. Separation of plasma from the blood samples was complete after about 15 minutes of centrifugation. The resulting plasma samples were frozen at about −20° C. and stored until analyzed. Analysis was performed using an LC/MS/MS procedure.
This study was conducted using the same four dogs for three formulations that were identical except for the particle size of the eplerenone starting material. […]

[3] = Solubility in aqueous solution; format: physicochemical; settings: also micronized

## COC(=O)C1CC2=CC(=O)CCC2(C)C23OC2CC2(C)C(CC[C@@]24CCC(=O)O4)C13 (stereo partly drawn) [eplerenone, methyl hydrogen 9,11α-epoxy-17α-hydroxy-3-oxopregn-4-ene-7α,21-dicarboxylate, γ-lactone]
ADME study: safety
  changes in physical examinations, vital signs or clinical laboratory test results: no clinically significant changes
  serious adverse effects: no serious adverse effects
[1]
  changes in vital signs or physical examinations: no clinically significant changes
  severity of adverse events: mild
Blood pressure; 25 mg BID
  24 hour mean ΔDBP: −3.9 mmHg
  24 hour mean ΔSBP: −7.4 mmHg
  Primary Efficacy Variable: ΔDBP at trough (sitting): −4.5 mmHg
  ΔSBP at trough (sitting): −8.9 mmHg
Blood pressure; 50 mg BID
  24 hour mean ΔDBP: −7.2 mmHg
  24 hour mean ΔSBP: −12.6 mmHg
  Primary Efficacy Variable: ΔDBP at trough (sitting): −7.8 mmHg
  ΔSBP at trough (sitting): −11.8 mmHg
Blood pressure; 50 mg QD
  24 hour mean ΔDBP: −4.8 mmHg
  24 hour mean ΔSBP: −7.1 mmHg
  Primary Efficacy Variable: ΔDBP at trough (sitting): −4.4 mmHg
  ΔSBP at trough (sitting): −4.6 mmHg
Blood pressure; 100 mg QD
  24 hour mean ΔDBP: −6.1 mmHg
  24 hour mean ΔSBP: −9.7 mmHg
  Primary Efficacy Variable: ΔDBP at trough (sitting): −4.5 mmHg
  ΔSBP at trough (sitting): −8.0 mmHg
Blood pressure; 200 mg BID
  24 hour mean ΔDBP: −9.3 mmHg
  24 hour mean ΔSBP: −15.9 mmHg
  Primary Efficacy Variable: ΔDBP at trough (sitting): −9.4 mmHg
  ΔSBP at trough (sitting): −15.8 mmHg
Blood pressure; 400 mg QD
  24 hour mean ΔDBP: −7.6 mmHg
  24 hour mean ΔSBP: −13.0 mmHg
  Primary Efficacy Variable: ΔDBP at trough (sitting): −8.9 mmHg
  ΔSBP at trough (sitting): −14.1 mmHg
Blood pressure; all eplerenone doses, eight weeks of treatment, hypertension patients
  cuff diastolic and systolic pressures from baseline compared to placebo: lowered
Blood pressure; eight weeks of treatment
  blood pressure reduction, QD versus BID dosing regimens: equivalent reductions
[2]
  increase of relative bioavailability: ~100%
[3]
  solubility in aqueous solution: largely insoluble
